Test results taken from publication PMC6525019 (Cell chemical biology, 2019).

Assays:
RibBX [1] = molecular target: T1, RibBX (Acinetobacter baumannii, UniProt V5V8R9); test: isothermal titration calorimetry; type: binding
T1 sequence (V5V8R9 1-373): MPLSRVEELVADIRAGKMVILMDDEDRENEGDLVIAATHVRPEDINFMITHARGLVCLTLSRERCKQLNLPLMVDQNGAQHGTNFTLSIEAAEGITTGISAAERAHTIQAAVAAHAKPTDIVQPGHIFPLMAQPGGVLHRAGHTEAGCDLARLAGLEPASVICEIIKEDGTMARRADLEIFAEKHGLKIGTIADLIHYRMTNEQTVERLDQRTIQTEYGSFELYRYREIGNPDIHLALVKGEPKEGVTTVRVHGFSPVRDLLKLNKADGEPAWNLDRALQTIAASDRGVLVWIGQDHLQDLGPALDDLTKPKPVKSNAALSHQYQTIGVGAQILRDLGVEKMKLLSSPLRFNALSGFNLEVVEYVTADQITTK

RibBX [2] = molecular target: T1, RibBX; test: colorimetric DHBPS assay; type: biochemical
[3] = molecular target: A. baumannii RibBX (3,4-dihydroxy-2-butanone 4-phosphate synthase (DHBPS; RibB) fusion protein) (Acinetobacter baumannii ATCC 17978); test: crystal structure
[4] = molecular target: A. baumannii RibBX (3,4-dihydroxy-2-butanone 4-phosphate synthase (DHBPS; RibB) fusion protein) (Acinetobacter baumannii ATCC 17978); test: SEC

stoichiometry N [3]	stoichiometry N [4]	Compound	Kd (RibBX [1])	Ki (RibBX [2])
–	–	Cc1cc2nc3c(=O)[nH]c(=O)nc-3n(C[C@H](O)[C@H](O)[C@H](O)COP(=O)(O)O)c2cc1C [FMN]	0.714 µM	7.8 µM
4	2	A. baumannii RibBX (3,4-dihydroxy-2-butanone 4-phosphate synthase (DHBPS; RibB) fusion protein) (enzyme)	–	–
